Assay results as given in PubChem BioAssay (NCI).
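Compound exposure: 48 hours, 5 concentrations, 96-well plates. GI50 is the concentration that inhibits growth by half. TGI: concentration producing complete growth inhibition.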

Tests used:
Test in all cases: NCI tumour cell line growth inhibition, 48 h
[1] = test system: 786-0 renal
[2] = test system: A549 NSCLC
[3] = test system: ACHN renal
[4] = test system: BT-549 breast
[5] = test system: CAKI-1 renal
[6] = test system: CCRF-CEM leukemia
[7] = test system: COLO 205 colon
[8] = test system: EKVX NSCLC
[9] = test system: HCC-2998 colon
[10] = test system: HCT-116 colon
[11] = test system: HCT-15 colon
[12] = test system: HL-60(TB) leukemia
[13] = test system: HOP-62 NSCLC
[14] = test system: HOP-92 NSCLC
[15] = test system: HS 578T breast
[16] = test system: HT29 colon
[17] = test system: IGROV1 ovarian
[18] = test system: K-562 leukemia
[19] = test system: KM12 colon
[20] = test system: LOX IMVI melanoma
[21] = test system: M14 melanoma
[22] = test system: MCF7 breast
[23] = test system: MDA-MB-231 breast
[24] = test system: MDA-MB-435

Compound: O=C(NNC(=O)C1CCN(S(=O)(=O)c2ccc(-c3ccccc3)cc2)CC1)c1ccc(C(F)(F)F)cc1
- GI50 [1]: 7.21 µM
- TGI [1]: 34.1 µM
- GI50 [2]: > 50 µM
- TGI [2]: > 50 µM
- GI50 [3]: > 50 µM
- TGI [3]: > 50 µM
- GI50 [4]: 44.1 µM
- TGI [4]: > 50 µM
- GI50 [5]: > 50 µM
- TGI [5]: > 50 µM
- GI50 [6]: > 50 µM
- TGI [6]: > 50 µM
- GI50 [7]: > 50 µM
- TGI [7]: > 50 µM
- GI50 [8]: > 50 µM
- TGI [8]: > 50 µM
- GI50 [9]: 20.6 µM
- TGI [9]: > 50 µM
- GI50 [10]: 4.77 µM
- TGI [10]: 13.2 µM
- GI50 [11]: > 50 µM
- TGI [11]: > 50 µM
- GI50 [12]: > 50 µM
- TGI [12]: > 50 µM
- GI50 [13]: 5.46 µM
- TGI [13]: 16.5 µM
- GI50 [14]: 2.89 µM
- TGI [14]: > 50 µM
- GI50 [15]: 38.3 µM
- TGI [15]: > 50 µM
- GI50 [16]: > 50 µM
- TGI [16]: > 50 µM
- GI50 [17]: > 50 µM
- TGI [17]: > 50 µM
- GI50 [18]: > 50 µM
- TGI [18]: > 50 µM
- GI50 [19]: > 50 µM
- TGI [19]: > 50 µM
- GI50 [20]: > 50 µM
- TGI [20]: > 50 µM
- GI50 [21]: 15.9 µM
- TGI [21]: > 50 µM
- GI50 [22]: > 50 µM
- TGI [22]: > 50 µM
- GI50 [23]: 1.58 µM
- TGI [23]: 34.9 µM
- GI50 [24]: > 50 µM
- TGI [24]: > 50 µM
